Reference: ChEMBL document CHEMBL1137777, “Design, synthesis, and evaluation of indolinones as triple angiokinase inhibitors and the discovery of a highly specific 6-methoxycarbonyl-substituted indolinone (BIBF 1120)” (J Med Chem, 2009)

What was measured:
[1] = target: Vascular endothelial growth factor receptor 2 (Homo sapiens, UniProt P35968); assay: Inhibition of human VEGFR2 expressed in Sf9 cells
[2] = test system: HUVEC; assay: cells; conditions: Homo sapiens, 3 h
Description: Antiangiogenic activity in HUVEC assessed as inhibition of VEGF-induced cell proliferation by [3H]thymidine incorporation assay

[3] = target: Insulin-like growth factor 1 receptor (Homo sapiens, UniProt P08069); assay: Inhibition of human IGFR1
[4] = target: Insulin receptor (Homo sapiens, UniProt P06213); assay: Inhibition of human InsR
[5] = target: Cyclin-dependent kinase 1 (Homo sapiens, UniProt P06493); assay: Inhibition of human CDK1
[6] = target: Cyclin-dependent kinase 4 (Homo sapiens, UniProt P11802); assay: Inhibition of human CDK4
[7] = target: Epidermal growth factor receptor (Homo sapiens, UniProt P00533); assay: Inhibition of human EGFR
[8] = target: Receptor tyrosine-protein kinase erbB-2 (Homo sapiens, UniProt P04626); assay: Inhibition of human HER2
[9] = target: Serine/threonine-protein kinase PLK1 (Homo sapiens, UniProt P53350); assay: Inhibition of human Plk1
[10] = test system: HeLa; assay: Antiangiogenic activity against human HeLa cells assessed as inhibition of cell proliferation by [3H]thymidine incorporation assay; type: functional, cell-based

Chain of Vascular endothelial growth factor receptor 2 (P35968 whole entry): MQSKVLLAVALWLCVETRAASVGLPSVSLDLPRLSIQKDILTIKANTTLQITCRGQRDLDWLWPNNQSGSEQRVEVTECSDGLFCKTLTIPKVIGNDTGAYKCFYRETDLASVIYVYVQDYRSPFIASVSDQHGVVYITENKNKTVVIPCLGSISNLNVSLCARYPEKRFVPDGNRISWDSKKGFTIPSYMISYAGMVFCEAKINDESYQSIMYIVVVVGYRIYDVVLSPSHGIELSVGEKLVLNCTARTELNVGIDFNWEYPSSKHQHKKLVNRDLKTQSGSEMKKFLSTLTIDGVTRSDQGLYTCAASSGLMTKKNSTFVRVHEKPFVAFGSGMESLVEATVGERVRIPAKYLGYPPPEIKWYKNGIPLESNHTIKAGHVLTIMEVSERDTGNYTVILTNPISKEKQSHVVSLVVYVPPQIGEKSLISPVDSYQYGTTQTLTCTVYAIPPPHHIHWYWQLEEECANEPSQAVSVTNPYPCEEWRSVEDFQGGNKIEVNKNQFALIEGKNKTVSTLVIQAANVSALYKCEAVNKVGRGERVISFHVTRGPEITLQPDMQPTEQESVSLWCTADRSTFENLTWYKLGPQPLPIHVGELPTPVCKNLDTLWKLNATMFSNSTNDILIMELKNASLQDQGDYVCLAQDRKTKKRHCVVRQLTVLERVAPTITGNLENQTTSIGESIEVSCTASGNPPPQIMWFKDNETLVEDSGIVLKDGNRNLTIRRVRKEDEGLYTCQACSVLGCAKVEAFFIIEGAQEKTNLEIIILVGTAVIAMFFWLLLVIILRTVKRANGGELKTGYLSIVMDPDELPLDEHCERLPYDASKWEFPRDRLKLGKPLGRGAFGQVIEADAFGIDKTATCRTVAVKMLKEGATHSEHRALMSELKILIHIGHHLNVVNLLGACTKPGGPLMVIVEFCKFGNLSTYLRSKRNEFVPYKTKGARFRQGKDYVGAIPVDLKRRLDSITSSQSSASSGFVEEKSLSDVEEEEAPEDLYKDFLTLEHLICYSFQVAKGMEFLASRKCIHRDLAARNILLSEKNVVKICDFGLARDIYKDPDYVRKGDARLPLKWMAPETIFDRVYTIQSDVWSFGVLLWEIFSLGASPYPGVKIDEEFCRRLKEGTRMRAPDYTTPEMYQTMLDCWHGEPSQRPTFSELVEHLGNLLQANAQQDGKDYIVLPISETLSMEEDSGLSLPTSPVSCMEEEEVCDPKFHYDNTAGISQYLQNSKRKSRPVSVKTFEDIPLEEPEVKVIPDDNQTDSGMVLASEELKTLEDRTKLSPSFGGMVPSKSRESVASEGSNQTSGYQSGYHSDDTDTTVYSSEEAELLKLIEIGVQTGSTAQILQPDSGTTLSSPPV
Chain of Cyclin-dependent kinase 4 (P11802 whole entry): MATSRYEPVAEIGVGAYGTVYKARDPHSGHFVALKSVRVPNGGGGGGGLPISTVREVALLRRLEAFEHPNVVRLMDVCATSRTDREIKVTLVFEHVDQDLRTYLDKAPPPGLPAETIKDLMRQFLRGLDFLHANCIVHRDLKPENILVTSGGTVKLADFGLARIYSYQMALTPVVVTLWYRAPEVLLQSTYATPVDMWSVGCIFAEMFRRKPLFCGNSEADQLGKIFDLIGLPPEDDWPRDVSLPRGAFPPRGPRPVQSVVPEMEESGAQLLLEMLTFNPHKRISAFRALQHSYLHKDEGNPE
Chain of Insulin receptor (P06213 28-758 limits assumed): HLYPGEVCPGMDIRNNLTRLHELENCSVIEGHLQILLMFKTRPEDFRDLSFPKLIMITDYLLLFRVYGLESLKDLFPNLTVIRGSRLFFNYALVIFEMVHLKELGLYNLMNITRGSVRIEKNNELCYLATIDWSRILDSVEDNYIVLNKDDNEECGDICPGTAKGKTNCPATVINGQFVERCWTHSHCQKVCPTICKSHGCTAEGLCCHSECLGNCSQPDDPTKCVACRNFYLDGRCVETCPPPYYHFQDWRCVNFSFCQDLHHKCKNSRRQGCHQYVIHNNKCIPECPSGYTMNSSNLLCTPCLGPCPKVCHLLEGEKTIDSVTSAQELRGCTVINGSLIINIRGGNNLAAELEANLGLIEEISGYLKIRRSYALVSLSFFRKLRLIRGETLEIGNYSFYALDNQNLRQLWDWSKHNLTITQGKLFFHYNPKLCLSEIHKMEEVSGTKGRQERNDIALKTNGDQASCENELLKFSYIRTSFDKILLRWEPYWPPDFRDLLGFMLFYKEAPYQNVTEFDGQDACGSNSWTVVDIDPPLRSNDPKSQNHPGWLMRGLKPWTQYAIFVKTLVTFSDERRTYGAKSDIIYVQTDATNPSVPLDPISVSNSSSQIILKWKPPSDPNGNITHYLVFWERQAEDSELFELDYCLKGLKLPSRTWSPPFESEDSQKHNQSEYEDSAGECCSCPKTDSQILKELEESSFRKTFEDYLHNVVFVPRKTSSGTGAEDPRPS
Chain of Insulin receptor (P06213 763-1382 limits assumed): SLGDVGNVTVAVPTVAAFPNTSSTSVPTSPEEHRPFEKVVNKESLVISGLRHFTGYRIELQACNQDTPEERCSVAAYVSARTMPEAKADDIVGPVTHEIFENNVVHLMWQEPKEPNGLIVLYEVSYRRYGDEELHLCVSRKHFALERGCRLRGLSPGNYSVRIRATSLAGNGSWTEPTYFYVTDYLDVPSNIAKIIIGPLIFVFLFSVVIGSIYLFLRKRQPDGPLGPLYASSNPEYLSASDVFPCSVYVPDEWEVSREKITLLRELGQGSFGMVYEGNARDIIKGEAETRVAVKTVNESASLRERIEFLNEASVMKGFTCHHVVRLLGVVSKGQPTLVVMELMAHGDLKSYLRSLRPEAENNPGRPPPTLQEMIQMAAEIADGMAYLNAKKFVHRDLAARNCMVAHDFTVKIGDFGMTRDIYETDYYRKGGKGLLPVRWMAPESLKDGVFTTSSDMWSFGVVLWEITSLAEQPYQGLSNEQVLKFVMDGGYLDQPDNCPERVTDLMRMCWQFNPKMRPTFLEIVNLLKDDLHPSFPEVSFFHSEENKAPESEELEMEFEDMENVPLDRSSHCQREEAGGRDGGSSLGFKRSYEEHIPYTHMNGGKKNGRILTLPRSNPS
Chain of Insulin-like growth factor 1 receptor (P08069 31-736 limits assumed): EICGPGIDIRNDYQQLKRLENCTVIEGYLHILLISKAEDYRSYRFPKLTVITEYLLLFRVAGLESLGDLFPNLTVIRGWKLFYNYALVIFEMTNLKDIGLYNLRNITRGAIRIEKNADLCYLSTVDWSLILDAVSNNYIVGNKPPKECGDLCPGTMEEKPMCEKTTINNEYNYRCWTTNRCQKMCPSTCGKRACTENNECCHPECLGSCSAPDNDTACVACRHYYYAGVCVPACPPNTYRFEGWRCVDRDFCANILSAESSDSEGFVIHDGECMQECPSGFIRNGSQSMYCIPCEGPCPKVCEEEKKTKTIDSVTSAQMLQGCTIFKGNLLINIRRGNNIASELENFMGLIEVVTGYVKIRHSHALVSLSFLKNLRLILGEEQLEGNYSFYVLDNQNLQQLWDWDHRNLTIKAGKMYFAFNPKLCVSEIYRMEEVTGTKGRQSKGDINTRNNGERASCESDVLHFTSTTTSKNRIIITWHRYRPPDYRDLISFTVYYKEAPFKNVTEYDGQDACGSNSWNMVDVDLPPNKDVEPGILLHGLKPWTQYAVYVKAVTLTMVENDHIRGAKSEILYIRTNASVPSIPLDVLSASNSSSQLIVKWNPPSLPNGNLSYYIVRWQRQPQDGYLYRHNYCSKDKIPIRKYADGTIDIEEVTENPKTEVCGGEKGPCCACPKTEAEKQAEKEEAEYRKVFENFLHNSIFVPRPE
Chain of Insulin-like growth factor 1 receptor (P08069 741-1367 limits assumed): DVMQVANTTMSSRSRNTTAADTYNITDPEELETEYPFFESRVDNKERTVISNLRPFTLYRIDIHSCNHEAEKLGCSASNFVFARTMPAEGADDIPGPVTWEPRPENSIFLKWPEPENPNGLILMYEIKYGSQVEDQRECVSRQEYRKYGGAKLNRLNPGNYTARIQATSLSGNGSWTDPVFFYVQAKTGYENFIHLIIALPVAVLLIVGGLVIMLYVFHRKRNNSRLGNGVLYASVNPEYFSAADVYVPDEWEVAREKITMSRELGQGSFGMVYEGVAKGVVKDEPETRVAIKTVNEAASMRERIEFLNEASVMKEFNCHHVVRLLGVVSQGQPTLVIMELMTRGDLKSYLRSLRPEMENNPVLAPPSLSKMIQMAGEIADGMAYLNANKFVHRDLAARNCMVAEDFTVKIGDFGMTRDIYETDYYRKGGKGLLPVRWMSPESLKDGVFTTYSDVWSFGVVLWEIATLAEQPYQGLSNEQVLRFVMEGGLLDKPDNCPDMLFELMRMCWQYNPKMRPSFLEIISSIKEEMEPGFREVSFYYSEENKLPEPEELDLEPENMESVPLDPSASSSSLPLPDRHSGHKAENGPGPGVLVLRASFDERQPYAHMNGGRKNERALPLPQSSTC
Chain of Cyclin-dependent kinase 1 (P06493 whole entry): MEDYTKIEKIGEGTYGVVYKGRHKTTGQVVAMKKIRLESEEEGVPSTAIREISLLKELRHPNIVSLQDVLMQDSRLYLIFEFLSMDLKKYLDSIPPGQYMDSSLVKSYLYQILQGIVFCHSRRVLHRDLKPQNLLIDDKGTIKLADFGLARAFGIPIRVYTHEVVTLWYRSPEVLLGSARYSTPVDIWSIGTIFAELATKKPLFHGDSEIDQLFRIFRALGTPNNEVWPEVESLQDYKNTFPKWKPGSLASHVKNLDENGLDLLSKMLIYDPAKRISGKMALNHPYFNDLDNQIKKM

Structure (SMILES) | IC50 [1] [nM] | EC50 [2] [nM] | further results
COC(=O)c1ccc2c(c1)NC(=O)/C2=C(\NC1CCN(C)CC1)c1ccccc1 | > 10000 | – | –
O=C1Nc2cc(C(=O)O)ccc2/C1=C(/Nc1ccc(CN2CCCCC2)cc1)c1ccccc1 | > 1000 | – | –
CN(C)C(=O)c1ccc2c(c1)NC(=O)/C2=C(\Nc1ccc(CN2CCCCC2)cc1)c1ccccc1 | 1310 | 542 | –
NC(=O)c1ccc2c(c1)NC(=O)/C2=C(\Nc1ccc(CN2CCCCC2)cc1)c1ccccc1 | 763 | 342 | IC50 [3]: > 10000 nM; IC50 [4]: > 10000 nM; IC50 [5]: > 10000 nM; IC50 [6]: > 10000 nM; IC50 [7]: > 10000 nM; IC50 [8]: > 10000 nM; IC50 [9]: > 10000 nM
COC(=O)c1ccc2c(c1)NC(=O)/C2=C(\Nc1ccc(NC(=O)CN2CCN(C)CC2)cc1)c1ccccc1 | 83 | 83 | –
N#Cc1ccc2c(c1)NC(=O)/C2=C(\Nc1ccc(CN2CCCCC2)cc1)c1ccccc1 | 248 | 281 | –
O=C1Nc2cc(Cl)ccc2/C1=C(/Nc1ccc(CN2CCCCC2)cc1)c1ccccc1 | 129 | 49 | –
COC(=O)c1ccc2c(c1)NC(=O)/C2=C(\Nc1ccc(NC(=O)CN(C)C)cc1)c1ccccc1 | 119 | 88 | –
COC(=O)c1ccc2c(c1)NC(=O)/C2=C(\NC1CCC(NC(=O)CN(C)C)CC1)c1ccccc1 (stereo unspecified) | > 10000 | – | –
CCOC(=O)c1ccc2c(c1)NC(=O)/C2=C(\Nc1ccc(CN2CCCCC2)cc1)c1ccccc1 | 109 | 47 | EC50 [10]: > 1000 nM
COC(=O)c1ccc2c(c1)NC(=O)/C2=C(\Nc1ccc(CN2CCCC2=O)cc1)c1ccccc1 | 245 | – | –

Second part, led by results:

IC50 [1] [nM] | Structure (SMILES) | EC50 [2] [nM] | further results
24 | COC(=O)c1ccc2c(c1)NC(=O)/C2=C(\Nc1ccc(C(=O)N(C)CCN(C)C)cc1)c1ccccc1 | 25 | –
8 | COC(=O)c1ccc2c(c1)NC(=O)/C2=C(\Nc1ccc(N(CC(=O)N(C)C)C(C)=O)cc1)c1ccccc1 | 37 | –
23 | COC(=O)c1ccc2c(c1)NC(=O)/C2=C(\Nc1ccc(N(CCN(C)C)S(C)(=O)=O)cc1)c1ccccc1 | 14 | –
12 | COC(=O)c1ccc2c(c1)NC(=O)/C2=C(\Nc1ccc(N(CCN(C)C)C(C)=O)cc1)c1ccccc1 | 15 | –
9 | COC(=O)c1ccc2c(c1)NC(=O)/C2=C(\Nc1ccc(N(CCCN(C)C)C(C)=O)cc1)c1ccccc1 | 15 | –
